Data: patent US11993574B2, “Pyrazole and imidazole compounds for inhibition of IL-17 and RORgamma” (REATA PHARMACEUTICALS, INC., priority 2018, dated 2024)

Experiments:
Type in all cases: cell-based
IL-17A = experiment: IL-17 release from differentiated primary human T-cells (IL-17A HTRF assay); details: primary human CD4+ T cells differentiated into Th17 cells, 45-hour incubation, IL-17A in supernatant; read-out: hIL17 IC50
In short: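 Primary human CD4+ T cells (~2×10^5/well) given compound (2–500 or 4–1000 nM, 0.1% DMSO), CD3/CD28-activated and Th17-differentiated (TGF-β, IL-6, IL-23, IL-1β) for 45 h at 37° C. Supernatant IL-17A by HTRF against standard curve, normalized to vehicle; IC50 by variable-slope regression, with parallel CyQuant viability.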

[1] = biological target: T1, Human RAR-related Orphan Receptor Gamma (RORγ) (Homo sapiens, UniProt P51449); experiment: RORγ assay (GAL4-RORγ hybrid luciferase reporter, Indigo Biosciences); details: inverse-agonist activity, GAL4-RORγ reporter cells, 23 hours
T1 sequence (P51449 269-508 limits assumed): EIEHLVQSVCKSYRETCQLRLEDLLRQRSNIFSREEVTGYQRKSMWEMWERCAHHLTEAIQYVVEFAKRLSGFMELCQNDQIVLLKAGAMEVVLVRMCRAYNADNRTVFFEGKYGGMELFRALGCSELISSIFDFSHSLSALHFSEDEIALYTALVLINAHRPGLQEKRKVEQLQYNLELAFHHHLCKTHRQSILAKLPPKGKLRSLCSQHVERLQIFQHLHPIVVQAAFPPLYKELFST
In short: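 […]engineered human reporter cell line expressing GAL4-DBD/RORγ-LBD hybrid with GAL4-UAS luciferase; constitutive activity measured as inverse agonism. Cells treated with compound (7.8-2000 nM) for 23 h at 37 °C; luminescence normalized to DMSO, IC50 by variable-slope fit, with parallel viability readout to flag non-specific inhibition.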

[2] = system: Nrf2 transcription factor; experiment: AREc32 luciferase reporter assay; details: Homo sapiens; AREc32 cells, 19 hours; concentration required to increase GST ARE luciferase reporter activity by 2-fold; read-out: NRF2 ARE 2-Fold (EC2×)
In short: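 AREc32 cells (MCF-7 with firefly luciferase under eight rat GSTA2 ARE copies) treated 19 h with compound (0.4-200 nM or 3.9-2000 nM) in triplicate. Luminescence normalized to DMSO as fold-induction, capped at 50-fold. EC2× = concentration giving 2-fold reporter increase, interpolated from variable-slope fit.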

| IC50 (IL-17A) [nM] | IC50 [1] [nM] | Structure (SMILES) | EC (2-fold) [2] [µM] |
| --- | --- | --- | --- |
| 191 | 80 | COc1ccc(-n2nc3c(c2-c2ccccc2)CC[C@@H]2[C@@H](C)C(=O)C(C#N)=C[C@@]32C)cc1 [T116] | 0.483 |
| 107 | 114 | C[C@H]1C(=O)C(C#N)=C[C@@]2(C)c3nn(-c4ccc(Cl)c(Cl)c4)c(-c4ccccc4)c3CC[C@H]12 [T117] | 0.834 |
| 158 | 122 | Cc1ccc(-n2nc3c(c2-c2ccccc2)CC[C@@H]2[C@@H](C)C(=O)C(C#N)=C[C@@]32C)cc1 [T118] | 0.635 |
| 43 | 158 | C[C@H]1C(=O)C(C#N)=C[C@@]2(C)c3nn(-c4ccc(-c5ccccc5)cc4)c(CC4CCC4)c3CC[C@H]12 [T119] | 1.16 |
| 54 | 92 | C[C@H]1C(=O)C(C#N)=C[C@@]2(C)c3nn(-c4ccc(-c5ccccc5)cc4)c(-c4ccncn4)c3CC[C@H]12 [T120] | 0.908 |
| 85 | 242 | C[C@H]1C(=O)C(C#N)=C[C@@]2(C)c3nn(-c4cccc(-c5ccccc5)c4)c(-c4ccncn4)c3CC[C@H]12 [T121] | 1.07 |
| 246 | 97 | C[C@H]1C(=O)C(C#N)=C[C@@]2(C)c3nn(-c4ccncc4)c(-c4ccc(F)cc4)c3CC[C@H]12 [T122] | 0.441 |
| 50 | 139 | C[C@H]1C(=O)C(C#N)=C[C@@]2(C)c3nn(-c4ccc(-c5ccccc5)cc4)c(-c4ccccc4F)c3CC[C@H]12 [T123] | 1.18 |
| 77 | 123 | C[C@H]1C(=O)C(C#N)=C[C@@]2(C)c3nn(-c4ccc(-c5ccccc5)cc4)c(-c4ccncc4)c3CC[C@H]12 [T124] | 0.651 |
| 86 | 137 | C[C@H]1C(=O)C(C#N)=C[C@@]2(C)c3nn(-c4ccc(-c5ccccc5)cc4)c(-c4cccnc4)c3CC[C@H]12 [T125] | 0.877 |
| 21 | 253 | C[C@H]1C(=O)C(C#N)=C[C@@]2(C)c3nn(-c4cccc(-c5ccccc5)c4)c(-c4cccc(F)c4)c3CC[C@H]12 [T126] | 1.12 |
| 62 | 267 | C[C@H]1C(=O)C(C#N)=C[C@@]2(C)c3nc(-c4ccc(-c5ccccc5)cc4)n(-c4cccc(F)c4)c3CC[C@H]12 [T127] | 1.12 |
| 117 | 158 | C[C@H]1C(=O)C(C#N)=C[C@@]2(C)c3nc(-c4cccc(-c5ccccc5)c4)n(-c4cccc(F)c4)c3CC[C@H]12 [T128] | 0.818 |
| 73 | 214 | CC(C)c1ccc(-c2nc3c(n2-c2cccc(F)c2)CC[C@@H]2[C@@H](C)C(=O)C(C#N)=C[C@@]32C)cc1 [T129] | 1.29 |
| 273 | 345 | C[C@H]1C(=O)C(C#N)=C[C@@]2(C)c3nc(C4CCOCC4)n(-c4cccc(F)c4)c3CC[C@H]12 [T130] | 1.78 |
| 138 | 170 | CC(C)c1ncc(-c2nc3c(n2-c2cccc(F)c2)CC[C@@H]2[C@@H](C)C(=O)C(C#N)=C[C@@]32C)cn1 [T131] | 0.767 |
| 114 | 110 | C[C@H]1C(=O)C(C#N)=C[C@@]2(C)c3nc(-c4ccc(N(C)C)cc4)n(-c4cccc(F)c4)c3CC[C@H]12 [T132] | 1.02 |
| 247 | 225 | Cc1nc2c(n1-c1cccc(F)c1)CC[C@@H]1[C@@H](C)C(=O)C(C#N)=C[C@@]21C [T133] | 0.767 |

| IC50 (IL-17A) [nM] | IC50 [1] [nM] | Structure (SMILES) | EC (2-fold) [2] [µM] |
| --- | --- | --- | --- |
| 183 | 143 | C[C@H]1C(=O)C(C#N)=C[C@@]2(C)c3nc(-c4ccccc4)n(-c4cccc(F)c4)c3CC[C@H]12 [T134] | 0.832 |
| 160 | 141 | C[C@H]1C(=O)C(C#N)=C[C@@]2(C)c3nc(-c4ccnc5ccccc45)n(-c4cccc(F)c4)c3CC[C@H]12 [T135] | 0.896 |
| 144 | 189 | C[C@H]1C(=O)C(C#N)=C[C@@]2(C)c3nc(-c4cccc5ncccc45)n(-c4cccc(F)c4)c3CC[C@H]12 [T136] | 0.753 |
| 240 | 93 | C[C@H]1C(=O)C(C#N)=C[C@@]2(C)c3nc(-c4cnc5ccccc5c4)n(-c4cccc(F)c4)c3CC[C@H]12 [T137] | 0.618 |
| 201 | 284 | CC(C)c1cccc(-c2nc3c(n2-c2cccc(F)c2)CC[C@@H]2[C@@H](C)C(=O)C(C#N)=C[C@@]32C)c1 [T138] | 0.941 |
| 128 | 112 | C[C@H]1C(=O)C(C#N)=C[C@@]2(C)c3nc(-c4ccnc(N5CCOCC5)c4)n(-c4cccc(F)c4)c3CC[C@H]12 [T139] | 0.66 |
| 288 | 113 | C[C@H]1C(=O)C(C#N)=C[C@@]2(C)c3nc(Cc4ccccc4)n(-c4cccc(F)c4)c3CC[C@H]12 [T140] | 1.27 |
| 194 | 146 | C[C@H]1C(=O)C(C#N)=C[C@@]2(C)c3nc(-c4ccnc(C(F)(F)F)c4)n(-c4cccc(F)c4)c3CC[C@H]12 [T141] | 0.892 |
| 156 | 76 | C[C@H]1C(=O)C(C#N)=C[C@@]2(C)c3nc(-c4ccc(C5CC5)nc4)n(-c4cccc(F)c4)c3CC[C@H]12 [T142] | 0.861 |
| 132 | 95 | C[C@H]1C(=O)C(C#N)=C[C@@]2(C)c3nc(-c4cccc(N5CCOCC5)c4)n(-c4cccc(F)c4)c3CC[C@H]12 [T143] | 0.643 |
| 207 | 173 | C[C@H]1C(=O)C(C#N)=C[C@@]2(C)c3nc(-c4ccnc(C5CC5)c4)n(-c4cccc(F)c4)c3CC[C@H]12 [T144] | 1.12 |
| 87 | 92 | C[C@H]1C(=O)C(C#N)=C[C@@]2(C)c3nc(-c4cccc(Br)c4)n(-c4cccc(F)c4)c3CC[C@H]12 [T145] | 0.755 |
| 70 | 106 | C[C@H]1C(=O)C(C#N)=C[C@@]2(C)c3nc(-c4cccc(-c5ccncc5)c4)n(-c4cccc(F)c4)c3CC[C@H]12 [T146] | 0.423 |
| 185 | 108 | C[C@H]1C(=O)C(C#N)=C[C@@]2(C)c3nc(-c4cccc(-c5cncnc5)c4)n(-c4cccc(F)c4)c3CC[C@H]12 [T147] | 0.515 |
| 86 | 149 | C[C@H]1C(=O)C(C#N)=C[C@@]2(C)c3nc(-c4cccc(-c5cncc(F)c5)c4)n(-c4cccc(F)c4)c3CC[C@H]12 [T148] | 0.566 |
| 129 | 159 | C[C@H]1C(=O)C(C#N)=C[C@@]2(C)c3nc(-c4cccc(-c5cnn(C)c5)c4)n(-c4cccc(F)c4)c3CC[C@H]12 [T149] | 0.687 |
| 104 | 135 | Cc1noc(C)c1-c1cccc(-c2nc3c(n2-c2cccc(F)c2)CC[C@@H]2[C@@H](C)C(=O)C(C#N)=C[C@@]32C)c1 [T150] | 0.488 |
| 154 | 234 | C[C@H]1C(=O)C(C#N)=C[C@@]2(C)c3nc(-c4cccc(-c5ccnn5C)c4)n(-c4cccc(F)c4)c3CC[C@H]12 [T151] | 0.749 |
